Assay results published in ChEMBL document CHEMBL3885861, “Open TG-GATES”.

Organism: Rattus norvegicus
Test: Open TG-GATES - Regimen: Daily Repeat
Assay type: toxicity, organism-based, Sprague-Dawley
Set-up: regimen Daily Repeat, gender Male, age 6 weeks
Details: in vivo, po, 30 mg/kg, route gavage, dose level Low; for APTT / Bas / Eos / Fbg / Hb / Ht / Lym / MCH / MCHC / MCV / Mono / Neu / PT / Plat / RBC / Ret / WBC: tissue Blood
[1] = 72 h, tissue Kidney, time 3 day
[2] = 72 h, tissue Plasma, time 3 day

For `Clc1c(Cl)c(Cl)c(Cl)c(Cl)c1Cl` [PERCHLOROBENZENE], the TERMINAL_BW (72 h, time 3 day) was 223.9 g, the APTT (72 h, time 3 day) was 16.2 s and the Bas (72 h, time 3 day) was 0%. The Eos (72 h, time 3 day) was 1.2%, the Fbg (72 h, time 3 day) was 215.4 mg/dL and the Hb (72 h, time 3 day) was 13.9 g/dL. It also gave a Ht (72 h, time 3 day) of 41.8%, a Lym (72 h, time 3 day) of 72.2% and an MCH (72 h, time 3 day) of 21.8 pg. For the same compound, the MCHC (72 h, time 3 day) was 33.3%, the MCV (72 h, time 3 day) was 65.6 fL and the Mono (72 h, time 3 day) was 6.8%. It also gave a Neu (72 h, time 3 day) of 19.6%, a PT (72 h, time 3 day) of 11.5 s and a Plat (72 h, time 3 day) of 98.9 x10_4/uL. It also gave an RBC (72 h, time 3 day) of 637.6 x10_4/ul, a Ret (72 h, time 3 day) of 7.6% and a WBC (72 h, time 3 day) of 102.3 x10_2/uL. The KIDNEY_L [1] was 1.1 g, the KIDNEY_R [1] was 1.1 g and the KIDNEY_TOTAL [1] was 2.2 g. It also gave an LIVER (72 h, tissue Liver, time 3 day) of 12.4 g, an A/G [2] of 2.2 and an ALP [2] of 816 IU/L. The ALT [2] was 41.6 IU/L, the AST [2] was 67 IU/L and the BUN [2] was 14.6 mg/dL. For the same compound, the CRE [2] was 0.5 mg/dL, the Ca [2] was 10.5 mg/dL and the Cl [2] was 105.6 meq/L. For the same compound, the DBIL [2] was 0.028 mg/dL, the GLC [2] was 194.4 mg/dL and the IP [2] was 8.3 mg/dL. For the same compound, the K [2] was 5.1 meq/L, the LDH [2] was 104 IU/L and the Na [2] was 139.6 meq/L. For the same compound, the PL [2] was 143.8 mg/dL, the RALB [2] was 3.9 g/dL and the TBIL [2] was 0.4 mg/dL. It also gave a TC [2] of 82 mg/dL, a TG [2] of 79.8 mg/dL and a TP [2] of 5.7 g/dL. For the same compound, the gamma-GTP [2] was 1.4 IU/L, the TERMINAL_BW ([…], time 7 day) was 255.4 g and the TERMINAL_BW ([…], time 14 day) was 320.4 g. It also gave a TERMINAL_BW ([…], time 28 day) of 413.2 g, an APTT ([…], time 7 day) of 16.5 s and a Bas ([…], time 7 day) of 0%. It also gave an Eos ([…], time 7 day) of 1.4%, a Fbg ([…], time 7 day) of 225 mg/dL and a Hb ([…], time 7 day) of 14 g/dL. For the same compound, the Ht ([…], time 7 day) was 42%, the Lym ([…], time 7 day) was 79.6% and the MCH ([…], time 7 day) was 21.1 pg. It also gave an MCHC ([…], time 7 day) of 33.4%, an MCV ([…], time 7 day) of 63.3 fL and a Mono ([…], time 7 day) of 5.2%. It also gave a Neu ([…], time 7 day) of 14.2%, a PT ([…], time 7 day) of 11.6 s and a Plat ([…], time 7 day) of 116.4 x10_4/uL. The RBC ([…], time 7 day) was 663.6 x10_4/ul, the Ret ([…], time 7 day) was 5.4% and the WBC ([…], time 7 day) was 97.6 x10_2/uL. For the same compound, the APTT ([…], time 14 day) was 17.7 s, the Bas ([…], time 14 day) was 0% and the Eos ([…], time 14 day) was 1.6%. For the same compound, the Fbg ([…], time 14 day) was 225.8 mg/dL, the Hb ([…], time 14 day) was 14.4 g/dL and the Ht ([…], time 14 day) was 43%. It also gave a Lym ([…], time 14 day) of 66.8%, an MCH ([…], time 14 day) of 20.5 pg and an MCHC ([…], time 14 day) of 33.5%. It also gave an MCV ([…], time 14 day) of 61.3 fL, a Mono ([…], time 14 day) of 12% and a Neu ([…], time 14 day) of 19.6%. For the same compound, the PT ([…], time 14 day) was 11.9 s, the Plat ([…], time 14 day) was 119 x10_4/uL and the RBC ([…], time 14 day) was 702.6 x10_4/ul. For the same compound, the Ret ([…], time 14 day) was 4.3%, the WBC ([…], time 14 day) was 113.1 x10_2/uL and the APTT ([…], time 28 day) was 21.6 s. It also gave a Bas ([…], time 28 day) of 0%, an Eos ([…], time 28 day) of 1.8% and a Fbg ([…], time 28 day) of 258.6 mg/dL. For the same compound, the Hb ([…], time 28 day) was 15 g/dL and the Ht ([…], time 28 day) was 44.8%.
